IC50 and inhibition data for 16 compounds are collected here from patent publication US7109193B2, “Tricyclic diazepines tocolytic oxytocin receptor antagonists” (Wyeth, priority 2001, dated 2006).

This assay addresses T1, human vasopressin V1a receptor subtype (Homo sapiens, UniProt P37288).
T1 construct: host or cells: CHO cells (pZeoSV vector for the Thibonnier line)
As to the kind of experiment: Vasopressin binding in Chinese Hamster Ovary cell membranes expressing human vasopressin V1a subtype receptors. Particulars: CHO cell membranes, [3H]Manning ligand; for IC50: values in parentheses; for inhibition at 0.1 µM: 100 nM, values without parentheses. The method, boiled down: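 Membranes from CHO cells expressing human V1a receptor were incubated with [3H]Manning ligand (added as 20 μL of 8 nM) in pH 7.4 Tris buffer with MgCl2, BSA and protease inhibitors, 60 min at room temperature. Bound radioactivity was counted after filtration; values are percent inhibition at a stated concentration or IC50.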

T1 sequence (P37288 whole entry): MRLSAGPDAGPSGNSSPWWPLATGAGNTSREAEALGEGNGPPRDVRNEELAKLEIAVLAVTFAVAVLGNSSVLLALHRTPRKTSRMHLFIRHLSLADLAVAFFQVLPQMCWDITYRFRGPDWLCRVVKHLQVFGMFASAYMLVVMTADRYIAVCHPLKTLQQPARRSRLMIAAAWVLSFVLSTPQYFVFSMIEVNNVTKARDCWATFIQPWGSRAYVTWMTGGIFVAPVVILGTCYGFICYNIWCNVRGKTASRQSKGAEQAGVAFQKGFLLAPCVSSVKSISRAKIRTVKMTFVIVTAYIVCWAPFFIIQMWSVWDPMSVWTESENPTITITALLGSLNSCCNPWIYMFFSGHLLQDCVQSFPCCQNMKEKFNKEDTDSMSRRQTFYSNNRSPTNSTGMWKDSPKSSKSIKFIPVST

As a reminder, the IC50 is the concentration that gives 50% inhibition. For the compound `COc1cc(-c2ccccc2C)c(Cl)cc1C(=O)N1Cc2ccc(C(=O)N3CCC(N4CCCC4)CC3)n2Cc2ccccc21` [Example 136, {10-[(6-Chloro-3-methoxy-2′-methyl[1,1′-biphenyl]-4-yl)carbonyl]-10,11-dihydro-5H-pyrrolo[2,1-c][1,4]benzodiazepin-3-yl}[4-(1-pyrrolidinyl)-1-piperidinyl]methanone], the IC50 was determined as 538 nM.
On the same count and under the same terms, the result for `COc1cccc(-c2cc(OC)c(C(=O)N3Cc4ccc(C(=O)N(C)CCN(C)C)n4Cc4ccccc43)cc2Cl)c1` [Example 87, 10-[(6-Chloro-3,3′-dimethoxy[1,1′-biphenyl]-4-yl)carbonyl]-N-[2-(dimethylamino)ethyl]-N-methyl-10,11-dihydro-5H-pyrrolo[2,1-c][1,4]benzodiazepine-3-carboxamide] reads 349 nM; that for `Cc1cc(C(=O)N2Cc3ccc(C(=O)N(C)CCN(C)C)n3Cc3ccccc32)ccc1-c1ccccc1C(F)(F)F` [Example 85, N-[2-(Dimethylamino)ethyl]-N-methyl-10-{[2-methyl-2′-(trifluoromethyl)[1,1′-biphenyl]-4-yl]carbonyl}-10,11-dihydro-5H-pyrrolo[2,1-c][1,4]benzodiazepine-3-carboxamide], 788 nM; that for `COc1cc(C(=O)N2Cc3ccc(C(=O)N4CCC[C@H]4CN4CCCC4)n3Cc3ccccc32)ccc1-c1ccccc1C(F)(F)F` [Example 20, {[10-(2-Methoxy)-2′-trifluoromethyl-[1,1′-biphenyl]-4-yl]carbonyl}-[(2S)-[(2-pyrrolidin-1-yl)methyl]pyrrolidin-1-yl]-10,11-dihydro-5H-pyrrolo[2,1-c][1,4]benzodiazepin-3-yl-methanone], 717 nM.
The same measure, in the same setting: the result for `Cc1ccc(-c2ccc(C(=O)N3Cc4cccn4Cc4ccccc43)cc2)c2ccccc12` [Example 25, [4-(4-Methyl-naphthalen-1-yl)phenyl][10,11-dihydro-5H-pyrrolo[2,1-c][1,4]benzodiazepin-10-yl]methanone] reads 131 nM; that for `COc1cc(-c2ccccc2C)c(Cl)cc1C(=O)N1Cc2ccc(C(=O)N3CCN(CCN(C)C)CC3)n2Cc2ccccc21` [Example 197, {10-[(6-Chloro-3-methoxy-2′-methyl[1,1′-biphenyl]-4-yl)carbonyl]-10,11-dihydro-5H-pyrrolo[2,1-c][1,4]benzodiazepin-3-yl}{4-[2-(dimethylamino)ethyl]-1-piperazinyl}methanone], 524 nM.
One may read the inhibition as the percentage by which the read-out fell short of the control. As for `COc1cc(C(=O)N2Cc3ccc(C(=O)N(C)CCCN(C)C)n3Cc3ccccc32)ccc1-c1ccccc1C` [Example 105, N-[3-(Dimethylamino)propyl]-10-[(2-methoxy-2′-methyl[1,1′-biphenyl]-4-yl)carbonyl]-N-methyl-10,11-dihydro-5H-pyrrolo[2,1-c][1,4]benzodiazepine-3-carboxamide], the inhibition at 0.1 µM was 74%.
Regarding `COc1ccccc1-c1ccc(C(=O)N2Cc3ccc(C(=O)N4CCN(C)CC4)n3Cc3ccccc32)cc1` [Example 48, {10-[(2′-Methoxy[1,1′-biphenyl]-4-yl)carbonyl]-10,11-dihydro-5H-pyrrolo[2,1-c][1,4]benzodiazepin-3-yl}(4-methyl-1-piperazinyl)methanone], the IC50 is 484 nM.
The same measure, in the same setting: to `COc1cccc(-c2cc(OC)c(C(=O)N3Cc4ccc(C(=O)N(C)CCCN(C)C)n4Cc4ccccc43)cc2Cl)c1` [Example 99, 10-[(6-Chloro-3,3′-dimethoxy[1,1′-biphenyl]-4-yl)carbonyl]-N-[3-(dimethylamino)propyl]-N-methyl-10,11-dihydro-5H-pyrrolo[2,1-c][1,4]benzodiazepine-3-carboxamide] belongs 311 nM; to `COc1cc(-c2ccccc2C)ccc1C(=O)N1Cc2ccc(C(=O)N(C)CCCN(C)C)n2Cc2ccccc21` [Example 11, N-Methyl-N-[3-(dimethylamino)propyl]-10-[(3-methoxy-2′-methyl[1,1′-biphenyl]-4-yl)carbonyl]-10,11-dihydro-5H-pyrrolo[2,1-c][1,4]benzodiazepine-3-carboxamide], 70.4 nM; to `COc1cc(C(=O)N2Cc3cccn3Cc3ccccc32)ccc1-n1c(C)ccc1C` [Example 27, [4-(2,5-Dimethyl-1-H-pyrrol-1-yl)-3-methoxy-phenyl][10,11-dihydro-5H-pyrrolo[2,1-c][1,4]benzodiazepin-10-yl]methanone], 45.6 nM.
Still for that read-out and setting: to `COc1cc(-c2ccccc2C(F)(F)F)c(OC)cc1C(=O)N1Cc2cccn2Cc2ccccc21` [Example 32, 10-{[3,6-Dimethoxy-2′-trifluoromethyl-[1,1′-biphenyl]-4-yl]carbonyl}-10,11-dihydro-5H-pyrrolo[2,1-c][1,4]benzodiazepine] belongs greater than 3000 nM; to `COc1ccccc1-c1ccc(C(=O)N2Cc3ccc(C(=O)N4CCN(CCCN(C)C)CC4)n3Cc3ccccc32)cc1` [Example 246, {4-[3-(Dimethylamino)propyl]-1-piperazinyl}{10-[(2′-methoxy[1,1′-biphenyl]-4-yl)carbonyl]-10,11-dihydro-5H-pyrrolo[2,1-c][1,4]benzodiazepin-3-yl}methanone], 373 nM.
`COc1ccccc1-c1ccc(C(=O)N2Cc3ccc(C(=O)N4CCC(N5CCCCC5)CC4)n3Cc3ccccc32)cc1` [Example 111, {10-[(2′-Methoxy[1,1′-biphenyl]-4-yl)carbonyl]-10,11-dihydro-5H-pyrrolo[2,1-c][1,4]benzodiazepin-3-yl}[4-(1-piperidinyl)-1-piperidinyl]methanone]: the IC50 was 459 nM.
On the same count and under the same terms, the result for `Cc1cc(C(=O)N2Cc3ccc(C(=O)N4CC[C@@H](N(C)C)C4)n3Cc3ccccc32)ccc1-c1ccccc1C(F)(F)F` [Example 271, [(3R)-3-(Dimethylamino)pyrrolidinyl](10-{[2-methyl-2′-(trifluoromethyl)[1,1′-biphenyl]-4-yl]carbonyl}-10,11-dihydro-5H-pyrrolo[2,1-c][1,4]benzodiazepin-3-yl)methanone] reads 983 nM.
As to `CN(C)CCCNC(=O)c1ccc2n1Cc1ccccc1N(C(=O)c1ccc(-c3cccc4ccccc34)cc1Cl)C2` [Example 83, 10-[2-Chloro-4-(1-naphthyl)benzoyl]-N-[3-(dimethylamino)propyl]-10,11-dihydro-5H-pyrrolo[2,1-c][1,4]benzodiazepine-3-carboxamide], the inhibition at 0.1 µM came to 8%.
